Read-outs that look alike come from different tables or passages of the source.
Legend:
Assay in all cases: Post-emergent Test III, herbicidal activity in wheat and barley
Assay type in all cases: in vivo
[1] = system: STEME: common chickweed (Stellaria media); conditions: for pest or weed control at 35 g/ha / pest or weed control at 70 g/ha / pest or weed control at 140 g/ha: Stellaria media, post-emergence, 504 h, read-out: Visual Growth Reduction (%) 21 Days After Application STEME; for pest or weed control at 35 g/ha: 35 g ai/ha; for pest or weed control at 70 g/ha: 70 g ai/ha; for pest or weed control at 140 g/ha: 140 g ai/ha; for GR50 STEME / GR80 STEME: probit analysis, 21 days after application; for GR50 STEME: dose for growth reduction of 50 percent; for GR80 STEME: dose for growth reduction of 80 percent
How it was run: (§1)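 GR20, GR50, GR80 and GR90 come from probit analysis of visual injury scores (0 = none, 100 = complete kill) taken 21 d after treatment. Foliar application was by track sprayer delivering 187 L/ha at five rates, from high down to 1/16×, onto greenhouse plants at the 2–3 leaf stage, with solvent-blank controls.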

[2] = system: PHAMI: lesser canary grass (Phalaris minor); conditions: for pest or weed control at 35 g/ha / pest or weed control at 70 g/ha / pest or weed control at 140 g/ha: Phalaris minor, post-emergence, 504 h, read-out: Visual Growth Reduction (%) 21 Days After Application PHAMI; for pest or weed control at 35 g/ha: 35 g ai/ha; for pest or weed control at 70 g/ha: 70 g ai/ha; for pest or weed control at 140 g/ha: 140 g ai/ha; for GR50 PHAMI / GR80 PHAMI: probit analysis, 21 days after application; for GR50 PHAMI: dose for growth reduction of 50 percent; for GR80 PHAMI: dose for growth reduction of 80 percent
How it was run: as §1

[3] = system: GALAP: cleavers (Galium aparine); conditions: Table 8, 21 d; for pest or weed control at 35 g/ha: 35 g ai/ha; for pest or weed control at 70 g/ha: 70 g ai/ha; for GR50 GALAP: dose for 50 percent growth reduction; for GR50 GALAP / GR80 GALAP: probit analysis; for GR80 GALAP: dose for 80 percent growth reduction
How it was run: as §1

[4] = system: SASKR: Russian thistle (Salsola iberica); conditions: for pest or weed control at 35 g/ha: 35 g ai/ha; for pest or weed control at 70 g/ha: 70 g ai/ha; for GR50 SASKR: dose for 50 percent growth reduction; for GR50 SASKR / GR80 SASKR: probit analysis; for GR80 SASKR: dose for 80 percent growth reduction
How it was run: as §1

[5] = system: CIRAR: Canada thistle (Cirsium arvense); conditions: Table 8, 21 d; for pest or weed control at 35 g/ha: 35 g ai/ha; for pest or weed control at 70 g/ha: 70 g ai/ha; for GR50 CIRAR: dose for 50 percent growth reduction; for GR50 CIRAR / GR80 CIRAR: probit analysis; for GR80 CIRAR: dose for 80 percent growth reduction
How it was run: as §1

[6] = Galium aparine, post-emergence, 504 h, post-emergent, read-out: Visual Growth Reduction (%) 21 Days After Application GALAP
[7] = Salsola tragus, post-emergence, 504 h, Table 8, post-emergent, 21 d, read-out: Visual Growth Reduction (%) 21 Days After Application SASKR
[8] = Cirsium arvense, post-emergence, 504 h, post-emergent, read-out: Visual Growth Reduction (%) 21 Days After Application CIRAR
[9] = Salsola tragus, post-emergence, 504 h, 21 days after application, read-out: Visual Gorowth Reduction (%) 21 days After Application SASKR

Row | SMILES | pest or weed control at 35 g/ha [1] | pest or weed control at 70 g/ha [1] | pest or weed control at 140 g/ha [1] | GR50 STEME [1] | GR80 STEME [1] | pest or weed control at 35 g/ha [2] | pest or weed control at 70 g/ha [2] | pest or weed control at 140 g/ha [2] | GR50 PHAMI [2] | GR80 PHAMI [2] | other results
1 | COC(=O)c1nc(-c2ccc(I)cc2)c(F)c(N)c1Cl [Compound 118, Methyl 4-amino-6-(4-iodophenyl)-3-chloro-5-fluoropicolinate] | 30 to 44% | 30 to 44% | 30 to 44% | 1 g ai/ha | 1 g ai/ha | 0 to 29% | 60 to 74% | 75 to 84% | 68 g ai/ha | 126 g ai/ha | 
2 | COC(=O)c1nc(-c2ccc(C#N)c(F)c2)c(F)c(N)c1Cl [Compound 135, methyl 4-amino-3-chloro-6-(4-cyano-3-fluorophenyl)-5-fluoropicolinate] |  |  |  |  |  |  |  |  |  |  | pest or weed control at 35 g/ha [3, 6]: 60 to 74%; pest or weed control at 70 g/ha [3, 6]: 95 to 100%; pest or weed control at 140 g/ha ([3]; Galium aparine, post-emergence, 504 h, 140 g ai/ha, post-emergent, read-out: Visual Growth Reduction (%) 21 Days After Application GALAP): 95 to 100%; GR50 GALAP [3]: 12 g ai/ha; GR80 GALAP [3]: 38 g ai/ha; pest or weed control at 35 g/ha [4, 7]: 60 to 74%; pest or weed control at 70 g/ha [4, 7]: 60 to 74%; pest or weed control at 140 g/ha ([4]; Salsola tragus, post-emergence, 504 h, Table 8, 140 g ai/ha, post-emergent, 21 d, read-out: Visual Growth Reduction (%) 21 Days After Application SASKR): 75 to 84%; GR50 SASKR ([4]; Table 8, 21 d): 3 g ai/ha; GR80 SASKR ([4]; Table 8, 21 d): >140 g ai/ha; pest or weed control at 35 g/ha [5, 8]: 85 to 94%; pest or weed control at 70 g/ha [5, 8]: 85 to 94%; pest or weed control at 140 g/ha ([5]; Cirsium arvense, post-emergence, 504 h, 140 g ai/ha, post-emergent, read-out: Visual Growth Reduction (%) 21 Days After Application CIRAR): 85 to 94%; GR50 CIRAR [5]: 1 g ai/ha; GR80 CIRAR [5]: 13 g ai/ha
3 | COC(=O)c1nc(-c2ccc(I)c(F)c2)c(C)c(N)c1Cl [Compound 79, Methyl 4-amino-3-chloro-6-(3-fluoro-4-iodophenyl)-5-methylpicolinate] |  |  |  |  |  |  |  |  |  |  | pest or weed control at 35 g/ha [3, 6]: 95 to 100%; pest or weed control at 70 g/ha [3, 6]: 95 to 100%; GR50 GALAP [3]: 4 g ai/ha; GR80 GALAP [3]: 6 g ai/ha; pest or weed control at 35 g/ha [4, 7]: 75 to 84%; pest or weed control at 70 g/ha [4, 7]: 85 to 94%; GR50 SASKR ([4]; Table 8, 21 d): 11 g ai/ha; GR80 SASKR ([4]; Table 8, 21 d): 43 g ai/ha; pest or weed control at 35 g/ha [5, 8]: 95 to 100%; pest or weed control at 70 g/ha [5, 8]: 95 to 100%; GR50 CIRAR [5]: 1 g ai/ha; GR80 CIRAR [5]: 5 g ai/ha
4 | Nc1cc(-c2cc(F)c(Br)cc2F)nc(C(=O)O)c1Cl [Compound 3] |  |  |  |  |  |  |  |  |  |  | pest or weed control at 35 g/ha [3, 6]: 95 to 100%; pest or weed control at 70 g/ha [3, 6]: 95 to 100%; GR50 GALAP [3]: 5 g ai/ha; GR80 GALAP [3]: 7 g ai/ha; pest or weed control at 35 g/ha [4, 7]: 75 to 84%; pest or weed control at 70 g/ha [4, 7]: 85 to 94%; GR50 SASKR ([4]; Table 8, 21 d): 2 g ai/ha; GR80 SASKR ([4]; Table 8, 21 d): 28 g ai/ha; pest or weed control at 35 g/ha [5, 8]: 60 to 74%; pest or weed control at 70 g/ha [5, 8]: 75 to 84%; GR50 CIRAR [5]: 18 g ai/ha; GR80 CIRAR [5]: 53 g ai/ha
5 | C=Cc1c(C(=O)O)nc(-c2ccc(C(F)(F)F)c(F)c2)c(F)c1N [Compound 86] |  |  |  |  |  |  |  |  |  |  | pest or weed control at 35 g/ha [4, 9]: 60 to 74%; pest or weed control at 70 g/ha [4, 9]: 75 to 84%; GR50 SASKR ([4]; 21 days after application): 18 g ai/ha; GR80 SASKR ([4]; 21 days after application): 66 g ai/ha
6 | COC(=O)c1nc(-c2ccc(Br)cc2)c(F)c(N)c1Cl [Compound 138, Methyl 4-amino-6-(4-bromophenyl)-3-chloro-5-fluoropicolinate] | 30 to 44% | 30 to 44% | 45 to 59% | 125 g ai/ha | >140 g ai/ha | 45 to 59% | 75 to 84% | 85 to 94% | 31 g ai/ha | 78 g ai/ha | 
7 | Nc1c(F)c(-c2ccc(OC(F)F)cc2)nc(C(=O)O)c1Cl [Compound 143] | 0 to 29% | 0 to 29% | 0 to 29% | >140 g ai/ha | >140 g ai/ha | 0 to 29% | 30 to 44% | 60 to 74% | 112 g ai/ha | >140 g ai/ha | 
8 | COc1c(N)nc(-c2ccc(I)c(F)c2)nc1C(=O)O [Compound 37, 6-Amino-2-(3-fluoro-4-iodophenyl)-5-methoxypyrimidine-4-carboxylic acid] |  |  |  |  |  |  |  |  |  |  | pest or weed control at 35 g/ha [3, 6]: 85 to 94%; pest or weed control at 70 g/ha [3, 6]: 95 to 100%; GR50 GALAP [3]: 14 g ai/ha; GR80 GALAP [3]: 31 g ai/ha; pest or weed control at 35 g/ha [4, 7]: 45 to 59%; pest or weed control at 70 g/ha [4, 7]: 60 to 74%; GR50 SASKR ([4]; Table 8, 21 d): 33 g ai/ha; GR80 SASKR ([4]; Table 8, 21 d): 104 g ai/ha; pest or weed control at 35 g/ha [5, 8]: 45 to 59%; pest or weed control at 70 g/ha [5, 8]: 75 to 84%; GR50 CIRAR [5]: 23 g ai/ha; GR80 CIRAR [5]: 103 g ai/ha
9 | Nc1c(F)c(-c2ccc(Br)cc2)nc(C(=O)O)c1Cl [Compound 20] | 75 to 84% | 95 to 100% | 95 to 100% | 8 g ai/ha | 25 g ai/ha | 85 to 94% | 85 to 94% | 85 to 94% | 5 g ai/ha | 25 g ai/ha | 
10 | COC(=O)c1nc(-c2ccc(C#N)cc2)c(F)c(N)c1Cl [Compound 142] | 0 to 29% | 0 to 29% | 0 to 29% | >140 g ai/ha | >140 g ai/ha | 0 to 29% | 0 to 29% | 0 to 29% | >140 g ai/ha | >140 g ai/ha | 
11 | COC(=O)c1nc(-c2ccc(OC(F)F)cc2)c(F)c(N)c1Cl [Compound 85] | 0 to 29% | 0 to 29% | 0 to 29% | 57 g ai/ha | 123 g ai/ha | 0 to 29% | 0 to 29% | 0 to 29% | >140 g ai/ha | >140 g ai/ha | 
12 | COC(=O)c1nc(-c2ccc(Br)c(F)c2F)cc(N)c1Cl [Compound 114, methyl 4-amino-6-(4-bromo-2,3-difluorophenyl)-3-chloropicolinate] | 0 to 29% | 0 to 29% | 0 to 29% | >140 g ai/ha | >140 g ai/ha | 0 to 29% | 0 to 29% | 0 to 29% | >140 g ai/ha | >140 g ai/ha | 
13 | N#Cc1ccc(-c2nc(C(=O)O)c(Cl)c(N)c2F)cc1 [Compound 39] | 0 to 29% | 30 to 44% | 45 to 59% | 111 g ai/ha | >140 g ai/ha | 0 to 29% | 30 to 44% | 45 to 59% | 118 g ai/ha | >140 g ai/ha | 
14 | Nc1c(F)c(-c2cc(F)c(I)cc2F)nc(C(=O)O)c1Cl [Compound 69] |  |  |  |  |  |  |  |  |  |  | pest or weed control at 35 g/ha [4, 9]: 85 to 94%; pest or weed control at 70 g/ha [4, 9]: 85 to 94%; GR50 SASKR ([4]; 21 days after application): 7 g ai/ha; GR80 SASKR ([4]; 21 days after application): 29 g ai/ha
15 | Nc1c(F)c(-c2ccc(I)cc2)nc(C(=O)O)c1Cl [Compound 45, 4-amino-3-chloro-5-fluoro-6-(4-iodophenyl)picolinic acid] | 30 to 44% | 30 to 44% | 30 to 44% | 75 g ai/ha | >140 g ai/ha | 75 to 84% | 85 to 94% | 95 to 100% | 15 g ai/ha | 32 g ai/ha | 

Reference: patent US9113629B2, “4-amino-6-(4-substituted-phenyl)-picolinates and 6-amino-2-(4-substituted-phenyl)-pyrimidine-4-carboxylates and their use as herbicides” (DOW AGROSCIENCES LLC, priority 2013, dated 2015)
